{"source": "patent US5093338A", "about": "“Lipophilic macrolide useful as an immunosuppressant” (Merck & Co., Inc., priority 1991, dated 1992)", "origin": "cited, not measured here", "key": {"[1]": {"test_system": "allergic encephalomyelitis", "conditions": "rats"}, "transplantation": {"test_system": "transplantation", "conditions": "combination with Cyclosporin A; heart, kidney, bowel, pancreas or other transplantation"}, "antibody production": {"test_system": "antibody production", "conditions": "rats"}, "[2]": {"test_system": "heterotopic heart allografts"}, "[3]": {"test_system": "adjuvant-induced arthritis", "conditions": "rats"}, "[4]": {"conditions": "rats given heterotopic heart allografts"}}}
{"compound": "CO[C@H]1C[C@@H]2CC[C@@H](C)[C@@](O)(O2)C(=O)C(=O)N2CCCC[C@H]2C(=O)O[C@H]([C@H](C)C[C@@H]2CC[C@@H](O)[C@H](OC)C2)CC(=O)[C@H](C)/C=C(\\C)[C@@H](O)[C@@H](OC)C(=O)[C@H](C)C[C@H](C)/C=C/C=C/C=C/1C", "note": "[rapamycin]", "values": [{"measurement": "inhibiting the response to allergic encephalomyelitis", "setting": "[1]", "result": "inhibiting the response to allergic encephalomyelitis"}, {"measurement": "amount of Cyclosporin A required for immunosuppressive effect in combination", "setting": "transplantation", "result": "reducing the amount of Cyclosporin A required"}, {"measurement": "inhibiting antibody production", "setting": "antibody production", "result": "inhibiting the response to allergic encephalomyelitis,adjuvant-induced arthritis and antibody production"}, {"measurement": "immunosuppressive in rats given heterotopic heart allografts", "setting": "[2]", "result": "immunosuppressive"}, {"measurement": "inhibiting the response to adjuvant-induced arthritis", "setting": "[3]", "result": "inhibiting the response to allergic encephalomyelitis,adjuvant-induced arthritis"}, {"measurement": "toxicity compared with that anticipated with FK-506", "setting": "[4]", "result": "less toxicity was experienced than would be anticipated with FK-506"}]}
